Measurements as given in US8834938B2, “Use of arsenic for cancer therapy protection” (Board of Regents of the University of Texas System, priority 2011, dated 2014).
Counter-ions that a name gives are not always drawn. Like-named read-outs stand apart in the source and are kept apart here. Starred links: 1 amine or outer side, 2 acyl side, 3 side chain; linkers in the order of their positions; H or OH if unused. Positions of bridges follow the written chain, without caps; N, C: chain ends. Non-standard residues stand in square brackets, D forms with d. Residues, ends and D or L forms follow the SMILES beside them. Chains are numbered I, II in the order given. Actinocin(9to1) = Cc1c2oc3c(C)ccc(C(=O)[*:1])c3nc-2c(C(=O)[*:2])c(N)c1=O; NMeV = CN[C@H](C(=O)O)C(C)C; Sar = CNCC(=O)O

What was measured:
[1] = tested on: small intestine and bone marrow cells; settings: mouse, in vivo
[2] = tested on: small intestine and bone marrow cells; settings: mouse, in vivo; remark: listed apart in the source
[3] = tested on: Human colon carcinoma cells, SW-480; format: in vivo, mice
[4] = tested on: Human lung carcinoma cells A549; format: in vivo, mice
[5] = tested on: Human breast carcinoma cells, MDA-MB-231; format: in vivo, mice
[6] = in vivo; cited from earlier work
[7] = oral; cited from earlier work
[8] = in vivo; cited from earlier work; remark: listed apart in the source
[9] = in vivo; cited from earlier work; remark: listed apart in the source
[10] = in vivo, cited from earlier work
[11] = in vivo; cited from earlier work; remark: listed apart in the source
[12] = oral, 30 mg/m^2 to 100 mg/m^2; cited from earlier work
[13] = tested on: multiple myeloma; settings: oral administration; cited from earlier work
[14] = cited from earlier work
[15] = cited from earlier work; remark: listed apart in the source
[16] = tested on: chronic myelogenous leukemia; settings: previously untreated chronic myelogenous leukemia; cited from earlier work
[17] = tested on: certain animal tumors; settings: in vivo; cited from earlier work
[18] = mice; cited from earlier work
[19] = patients with creatinine clearance >35 mL per minute; cited from earlier work
[20] = 10 mg daily over 2 to 3 hours IV; cited from earlier work
[21] = parameters: species or system mice; settings: mouse, in vivo
[22] = tested on: Lung; settings: mouse, in vivo
[23] = parameters: species or system mice; settings: mouse, in vivo; remark: listed apart in the source
[24] = tested on: Heart; settings: mouse, in vivo
[25] = mouse, in vivo
[26] = mouse, in vivo; remark: listed apart in the source
[27] = mouse, in vivo; remark: listed apart in the source
[28] = tested on: p53; assay: C57BL/6 WT vs p53 R172P knock-in mice, protection by arsenic; format: in vivo; settings: in contrast with wild type littermates
[29] = tested on: human adult foreskin keratinocytes; settings: cited from earlier work
[30] = tested on: p53; assay: p53 response to irradiation in peripheral blood lymphocytes after arsenic removal; format: in vivo, Mice
Description: We next used mice to examine arsenic-mediated modulation of p53 activity in vivo. To this end, we used peripheral blood lymphocytes to monitor the p53 response to irradiation. Mice were fed with water containing arsenic for 3 days. Whole blood was collected from the animals 1, 3, 5, 7, 9, or 11 days after arsenic removal. Lymphocytes were isolated by using the Ficoll method. The cells were cultured for 24 h, then irradiated at a dose of 2 Gy and harvested 3 hours post-treatment. Western analysis was performed. Consistent with the results from cell-based studies, p53 activation by radiation recovered, albeit with a slightly slower kinetics, after arsenic was removed. Radiation-induced p53 accumulation and p21 expression were suppressed at 0 and 1 day […], partially recovered at day 7 and completely back to the untreated level at day 9.

[31] = mouse, in vivo; remark: listed apart in the source
[32] = tested on: p53; format: cell-based
[33] = tested on: p53; format: cell-based, human
[34] = 5FU 30 mg/kg i.v. daily for one week
[35] = after arsenic removal, 3 days arsenic water

## O=c1[nH]cc(F)c(=O)[nH]1 [5FU, Fluorouracil]
[1]
  Damage to small intestine and bone marrow cells: severe damages
[2]
  Bone marrow cellularity: Bone marrow cell exhaustion
  Damage to the small intestine: severe damages
[3]; [34]
  Tumor volume response: marked tumor regression
[4]; 5FU 30 mg/kg intravenous daily for one week
  Tumor volume response: marked tumor regression
[5]; [34]
  Tumor volume response: marked tumor regression

## Cc1c2oc3c(C)ccc(C(=O)N[C@@H]4C(=O)N[C@H](C(C)C)C(=O)N5CCC[C@H]5C(=O)N(C)CC(=O)N(C)[C@@H](C(C)C)C(=O)O[C@@H]4C)c3nc-2c(C(=O)N[C@@H]2C(=O)N[C@H](C(C)C)C(=O)N3CCC[C@H]3C(=O)N(C)CC(=O)N(C)[C@@H](C(C)C)C(=O)O[C@@H]2C)c(N)c1=O [Actinomycin D] (I: T[dV]P[Sar][NMeV] / II: T[dV]P[Sar][NMeV]; ester I:1-I:C, II:1-II:C; linker I:N-II:N via Actinocin(9to1))
[6]
  Blood-brain barrier passage: does not pass the blood-brain barrier
  Dose excreted intact into the bile: Half of the dose
  Dose excreted intact into the urine: 10%
  Half-life: about 36 hr

## O=C(O)CCCc1ccc(N(CCCl)CCCl)cc1 [Chlorambucil, 4-(bis(2-chlorethyl)amino)benzenebutanoic acid]
[7]
  Absorption from the gastrointestinal tract: rapidly and completely absorbed

## N.N.[Cl][Pt][Cl] [Cisplatin]
[8]
  Oral absorption: not absorbed orally

## O.O=P1(N(CCCl)CCCl)NCCCO1 (centres unmarked) [Cyclophosphamide, 2H-1,3,2-Oxazaphosphorin-2-amine, N,N-bis(2-chloroethyl)tetrahydro-, 2-oxide, monohydrate]
[9]
  Stability in the gastrointestinal tract: stable in the gastrointestinal tract

## COc1cccc2c1C(=O)c1c(O)c3c(c(O)c1C2=O)C[C@@](O)(C(C)=O)C[C@@H]3O[C@H]1C[C@H](N)[C@H](O)[C@H](C)O1 [Daunorubicin, 5,12-Naphthacenedione, (8S-cis)-8-acetyl-10-(3-amino-2,3,6-trideoxy-a-L-lyxo-hexanopyranosyl)oxy)-7,8,9,10-tetrahydro-6,8,11-trihydroxy-10-methoxy hydrochloride]
[10]; po
  Oral absorption: poor
[10]
  Half-life of elimination: about 19 hr

## COc1cccc2c1C(=O)c1c(O)c3c(c(O)c1C2=O)C[C@@](O)(C(=O)CO)C[C@@H]3O[C@H]1C[C@H](N)[C@H](O)[C@H](C)O1 [Doxorubicin, 5,12-Naphthacenedione, (8s-cis)-10-((3-amino-2,3,6-trideoxy-a-L-lyxo-hexopyranosyl)oxy)-7,8,9,10-tetrahydro-6,8,11-trihydroxy-8-(hydroxyacetyl)-1-methoxy-hydrochloride]
[11]
  Absorption: absorbed poorly
  Elimination half-life: about 30 hr
  Excreted into the urine: a few percent

## O=NN(CCCl)C(=O)NC1CCCCC1 [Lomustine, 1-(2-chloro-ethyl)-3-cyclohexyl-1 nitrosourea]
[12]
  Radioactivity excreted as degradation products within 24 hours: about half

## N[C@@H](Cc1ccc(N(CCCl)CCCl)cc1)C(=O)O [Melphalan, 4-(bis(2-chloroethyl)amino)-L-phenylalanine]
[13]
  Patients showing a favorable response: one third to one half

## CO[C@@]12[C@H](COC(N)=O)C3=C(C(=O)C(C)=C(N)C3=O)N1C[C@@H]1N[C@@H]12 [Mitomycin]
[14]; 30 mg bolus injection
  Time required to reduce the serum concentration by 50%: 17 min
[14]; in vivo
  Dose excreted unchanged in the urine: Approximately 10%

## CC[C@]1(O)C[C@@H]2CN(CCc3c([nH]c4ccccc34)[C@@](C(=O)OC)(c3cc4c(cc3OC)N(C)[C@H]3[C@@](O)(C(=O)OC)[C@H](OC(C)=O)[C@]5(CC)C=CCN6CC[C@]43[C@@H]65)C2)C1 [Vinblastine]
[15]; in vivo
  Absorption after oral administration: Unpredictable absorption
  Dose recovered in the feces after biliary excretion: about 10%
  Plasma protein binding: bind to plasma proteins
[15]; intravenous injection
  Plasma half-life after distribution (first): approximately 1 hours
  Plasma half-life after distribution (second): ~72000 s
[15]; usual clinical doses
  Peak concentration in plasma: approximately 0.4 mM

## CC[C@]1(O)C[C@H]2CN(CCc3c([nH]c4ccccc34)[C@@](C(=O)OC)(c3cc4c(cc3OC)N(C=O)[C@H]3[C@@](O)(C(=O)OC)[C@H](OC(C)=O)[C@]5(CC)C=CCN6CC[C@]43[C@@H]65)C2)C1 [Vincristine]
[15]; in vivo
  Absorption after oral administration: Unpredictable absorption
  Plasma protein binding: bind to plasma proteins
[15]; plasma
  Terminal half-life: about 24 hours

## CS(=O)(=O)OCCCCOS(C)(=O)=O [busulfan, 1,4-butanediol dimethanesulfonate]
[16]
  Adults obtaining hematologic remission: Approximately 90%

## COc1cccc2c1C(=O)c1c(O)c3c(c(O)c1C2=O)C[C@@](O)([C@H](C)O)C[C@@H]3O[C@H]1C[C@H](N)[C@H](O)[C@H](C)O1 [daunorubicinol]
[10]
  Half-life of active metabolite: about 27 hr

## N[C@H](Cc1ccc(N(CCCl)CCCl)cc1)C(=O)O [medphalan]
[17]
  Activity against certain animal tumors relative to L-isomer: less active

## Bleomycin
[18]
  Concentration in hematopoietic tissue: low concentrations
  Concentration in skin, lungs, kidneys, peritoneum, and lymphatics: high concentrations
[19]
  Serum or plasma terminal elimination half-life: approximately 115 minutes

## arsenic (III) oxide [Arsenic Trioxide]
[20]
  Plasma arsenic mean peak level: 6.85 µmol/L
  t1/2α: 0.89 ± 0.29 h
  t1/2β: 12.13 ± 3.31 h

## sodium arsenite
[21]
  p53-dependent tissue damages induced by 5FU treatment: significantly blunted
[22]
  Grade of Damage, Lung: Zero
[23]
  Duration of pretreatment adequate for optimal protection: 3 days
  Protection with 1 and 2 days pretreatment: less than 3-day pretreatment
  Protection with pretreatments longer than 3-day: no further increase of benefits
[1]
  Damage to small intestine and bone marrow cells with arsenic pretreatment: significantly inhibited
[2]
  5FU damage to the small intestine with arsenic pretreatment: significantly ameliorated
  5FU-induced decrease of bone marrow cellularity with arsenic pretreatment: considerably alleviated
[24]
  Grade of Damage, Heart: Zero
[25]
  Dose showing very clear toxicity by itself: > 3500 μg/kg body weight
[26]
  5FU-induced body weight loss with arsenic pretreatment: almost completely prevented
  Body weight change: little loss of body weight
[3]; mouse, in vivo
  Effect of arsenic pretreatment on 5FU-induced tumor suppression: little effect
  Effect on growth of the implanted tumors: did not have any detectable effect
[27]
  5FU-induced body weight loss with arsenic pretreatment: almost completely prevented
[28]
  Protection against toxicity in p53 mutant mice: little protection
[4]; mouse, in vivo
  Effect of arsenic pretreatment on 5FU-induced tumor suppression: little effect
  Effect of arsenic pretreatment on irradiation-induced tumor suppression: little effect
  Effect on growth of the implant tumors: did not have any detectable effect
[29]
  Concentration resulting in induced proliferation with enhanced NF-κB and AP-1 activity: ≤ 5 µM
  Concentration with statistically significant decrease of cell viability: ≥ 10 µM
[30]; 0 and 1 day, lymphocytes irradiated 2 Gy ex vivo
  Radiation-induced p53 accumulation and p21 expression: suppressed
[30]; [35]
  Day of complete return to untreated level of p53 accumulation and p21 expression: 9 days
  Day of partial recovery of radiation-induced p53 accumulation and p21 expression: 7 days
[31]
  Body weight change: little loss of body weight
  Therapy-induced body weight loss with arsenic pretreatment: effectively prevented
[32]
  Effect on Hdm2 and p53 distribution: upregulation of Hdm2 and accumulation of p53 in the cytoplasm
  p53 response to genotoxic stress: impaired p53 activation and apoptosis
[5]; mouse, in vivo
  Effect of arsenic pretreatment on 5FU-induced tumor suppression: little effect
[33]
  Time after arsenic removal until p53 activation almost completely recovered: 7 days
  Time in arsenic-free media until radiation-induced p53 activation detectable: 5 days
